This note sets out measurements from patent publication US20240018161A1, “MODULATORS OF CYSTIC FIBROSIS TRANSMEMBRANE CONDUCTANCE REGULATOR” (VERTEX PHARMACEUTICALS INCORPORATED, priority 2020, published 2024).

For series [1] the following is noted: 13-membered ring, DMF.
Series [2] addresses CFTR-mediated chloride transport in human intestinal epithelial enteroid cells (Homo sapiens, UniProt P13569). The experiment in a line: Membrane potential dye, Enteroid Assay A. The conditions noted are these: Enteroid Assay A; for pEC50: read-out: Ent. A EC50. In kind it is cell-based. The method in brief: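 Membrane potential dye (20 μM methyl oxonol, with 30 μM CaCCinh-A01 and 30 μM Chicago Sky Blue) loaded 25 min at room temperature into ROCK-inhibitor-seeded human enteroid cells. Chloride-free stimulation buffer triggered transport, followed by 15 min fluorescence. % Activity relative to 3 μM/3 μM/300 nM triple-combination control.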

pEC50: −log10 of the molar value. Where two headings read alike, the source gives them in different places.

Chain of CFTR-mediated chloride transport in human intestinal epithelial enteroid cells (P13569 with tags, fused parts or gaps DEL508-508): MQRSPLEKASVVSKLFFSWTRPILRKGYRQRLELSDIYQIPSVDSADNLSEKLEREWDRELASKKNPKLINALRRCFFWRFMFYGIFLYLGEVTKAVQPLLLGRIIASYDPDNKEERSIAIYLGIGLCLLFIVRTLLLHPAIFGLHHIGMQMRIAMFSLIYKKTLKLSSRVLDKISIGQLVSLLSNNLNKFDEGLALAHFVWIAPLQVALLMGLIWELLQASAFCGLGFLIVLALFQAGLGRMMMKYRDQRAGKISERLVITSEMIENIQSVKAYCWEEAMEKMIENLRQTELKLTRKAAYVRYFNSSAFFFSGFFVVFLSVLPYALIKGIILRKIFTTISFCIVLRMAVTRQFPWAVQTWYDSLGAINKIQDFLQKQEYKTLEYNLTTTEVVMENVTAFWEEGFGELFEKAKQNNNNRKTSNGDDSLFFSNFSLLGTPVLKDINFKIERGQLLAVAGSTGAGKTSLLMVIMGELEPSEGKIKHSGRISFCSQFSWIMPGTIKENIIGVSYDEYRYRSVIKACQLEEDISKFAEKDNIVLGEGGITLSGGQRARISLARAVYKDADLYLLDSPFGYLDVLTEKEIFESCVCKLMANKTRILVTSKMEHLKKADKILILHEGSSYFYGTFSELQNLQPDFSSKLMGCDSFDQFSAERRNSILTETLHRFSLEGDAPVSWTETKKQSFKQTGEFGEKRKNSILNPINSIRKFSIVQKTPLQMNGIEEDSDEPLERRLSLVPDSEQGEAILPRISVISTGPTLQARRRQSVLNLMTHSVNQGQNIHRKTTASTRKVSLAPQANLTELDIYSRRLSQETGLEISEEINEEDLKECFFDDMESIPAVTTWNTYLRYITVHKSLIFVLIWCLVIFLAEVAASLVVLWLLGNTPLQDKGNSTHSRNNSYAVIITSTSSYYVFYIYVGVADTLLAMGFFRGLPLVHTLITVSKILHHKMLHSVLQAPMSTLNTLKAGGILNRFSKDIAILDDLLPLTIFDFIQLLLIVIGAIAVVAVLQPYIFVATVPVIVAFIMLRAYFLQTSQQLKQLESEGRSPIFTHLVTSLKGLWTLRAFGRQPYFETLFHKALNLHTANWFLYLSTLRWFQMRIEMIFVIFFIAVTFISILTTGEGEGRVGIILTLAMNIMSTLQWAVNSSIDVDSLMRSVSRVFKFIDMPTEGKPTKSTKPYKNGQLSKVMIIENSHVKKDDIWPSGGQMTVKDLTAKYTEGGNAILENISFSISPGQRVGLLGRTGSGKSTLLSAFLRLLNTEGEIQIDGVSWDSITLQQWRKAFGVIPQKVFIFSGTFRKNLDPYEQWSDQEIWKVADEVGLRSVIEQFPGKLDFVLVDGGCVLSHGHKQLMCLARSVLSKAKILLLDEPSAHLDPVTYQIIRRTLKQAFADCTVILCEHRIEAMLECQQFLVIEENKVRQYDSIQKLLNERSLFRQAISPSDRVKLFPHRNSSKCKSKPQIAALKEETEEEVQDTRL

Turning to `Cc1cccc(C)c1-c1cc2nc(n1)NS(=O)(=O)c1cccc(c1)C(=O)N1CC3CN(Cc4ccccc4)CC3(C1)O2` (stereo not shown) [Compound 210, 20-Benzyl-5-(2,6-dimethylphenyl)-2-oxa-9λ^6-thia-6,8,16,20,24-pentaazapentacyclo[14.5.1.13,7.110,14.01,18]tetracosa-3(24),4,6,10,12,14(23)-hexaene-9,9,15-trione], the ring closure, isolated yield in series [1] (from Cc1cccc(C)c1-c1cc(Cl)nc(NS(=O)(=O)c2cccc(C(=O)N3CC4CN(Cc5ccccc5)CC4(O)C3)c2)n1, snar bond, NaH, 33.1 mM, 25.0 °C, 24.0 h) is 26%. Also, in series [2], the “Ent. A Max Activity (%)” value is on record as “+++ (+++ is >600%)” and the negative-log EC50 (pEC50) was greater than 6.00.
Consider `Cc1cccc(C)c1-c1cc2nc(n1)NS(=O)(=O)c1cccc(c1)C(=O)N1C[C@@H](CN(C(=O)OC(C)(C)C)C[C@H]1CC(C)C)O2` [Compound 102, tert-Butyl (16S,20R)-12-(2,6-dimethylphenyl)-20-(2-methylpropyl)-2,8,8-trioxo-15-oxa-8λ^6-thia-1,9,11,18,22-pentaazatetracyclo[14.4.1.13,7.110,14]tricosa-3(23),4,6,10(22),11,13-hexaene-18-carboxylate], for which the ring closure, isolated yield in series [1] (from Cc1cccc(C)c1-c1cc(Cl)nc(NS(=O)(=O)c2cccc(C(=O)N3C[C@H](O)CN(C(=O)OC(C)(C)C)C[C@H]3CC(C)C)c2)n1, snar bond, NaH, 30.8 mM, 4.17 h) came out at 34%. Moreover, in series [2], the “Ent. A Max Activity (%)” value was “++ (++ is 30-60%)” and the pEC50 is greater than 6.00.
For the compound `Cc1cccc(C)c1-c1cc2nc(n1)NS(=O)(=O)c1cccc(c1)C(=O)N1C[C@H](CN(C(=O)OC(C)(C)C)C[C@H]1CC(C)C)O2` [Compound 106, tert-Butyl (16R,20R)-12-(2,6-dimethylphenyl)-20-(2-methylpropyl)-2,8,8-trioxo-15-oxa-8λ^6-thia-1,9,11,18,22-pentaazatetracyclo[14.4.1.13,7.110,14]tricosa-3(23),4,6,10(22),11,13-hexaene-18-carboxylate], the ring closure, isolated yield in series [1] (from Cc1cccc(C)c1-c1cc(Cl)nc(NS(=O)(=O)c2cccc(C(=O)N3C[C@@H](O)CN(C(=O)OC(C)(C)C)C[C@H]3CC(C)C)c2)n1, snar bond, NaH, 31.3 mM, 2.17 h) came out at 45%. Besides, the “Ent. A Max Activity (%)” value in series [2] was “+ (+ is <30%)”.
As for `Cc1cccc(C)c1-c1cc2nc(n1)NS(=O)(=O)c1cccc(c1)C(=O)N1CCN(C(=O)OC(C)(C)C)[C@H](CC(C)C)[C@@H](C1)O2` [Compound 115, tert-Butyl (16R,17R)-12-(2,6-dimethylphenyl)-17-(2-methylpropyl)-2,8,8-trioxo-15-oxa-8λ^6-thia-1,9,11,18,22-pentaazatetracyclo[14.4.1.13,7.110,14]tricosa-3(23),4,6,10(22),11,13-hexaene-18-carboxylate], in series [1] (from Cc1cccc(C)c1-c1cc(Cl)nc(NS(=O)(=O)c2cccc(C(=O)N3CCN(C(=O)OC(C)(C)C)[C@H](CC(C)C)[C@H](O)C3)c2)n1, snar bond, NaH, 31.6 mM, 1.67 h), the ring closure, isolated yield amounted to 67%. Also, in series [2], the “Ent. A Max Activity (%)” value is recorded as “++ (++ is 30-60%)” and the pEC50 is greater than 6.00.
Compound `Cc1cccc(C)c1-c1cc2nc(n1)NS(=O)(=O)c1cccc(c1)C(=O)N1CCN(C(=O)OC(C)(C)C)[C@H](CC(C)C)[C@H](C1)O2` [Compound 114, tert-Butyl (16S,17R)-12-(2,6-dimethylphenyl)-17-(2-methylpropyl)-2,8,8-trioxo-15-oxa-8λ^6-thia-1,9,11,18,22-pentaazatetracyclo[14.4.1.13,7.110,14]tricosa-3(23),4,6,10(22),11,13-hexaene-18-carboxylate] had a ring closure, isolated yield in series [1] (from Cc1cccc(C)c1-c1cc(Cl)nc(NS(=O)(=O)c2cccc(C(=O)N3CCN(C(=O)OC(C)(C)C)[C@H](CC(C)C)[C@@H](O)C3)c2)n1, snar bond, NaH, 30.9 mM, 1.67 h) of 34%. In series [2], the “Ent. A Max Activity (%)” value is reported as “+++ (+++ is >600%)” and the pEC50 is greater than 6.00.
On to `Cc1cccc(C)c1-c1cc2nc(n1)NS(=O)(=O)c1cccc(c1)C(=O)N1C[C@@H](CN(C(=O)OC(C)(C)C)C[C@@H]1CC(C)(C)C)O2` [Compound 134, tert-Butyl (16S,20S)-12-(2,6-dimethylphenyl)-20-(2,2-dimethylpropyl)-2,8,8-trioxo-15-oxa-8λ^6-thia-1,9,11,18,22-pentaazatetracyclo[14.4.1.13,7.110,14]tricosa-3(23),4,6,10(22),11,13-hexaene-18-carboxylate], for which the ring closure, isolated yield in series [1] (from Cc1cccc(C)c1-c1cc(O[C@H]2CN[C@@H](CC(C)(C)C)CN(C(=O)OC(C)(C)C)C2)nc(NS(=O)(=O)c2cccc(C(=O)O)c2)n1, amide bond, HATU/DIEA, 29.2 mM, 25.0 °C, 0.33 h) came to 57%. In series [2], the “Ent. A Max Activity (%)” value is on record as “++ (++ is 30-60%)” and the pEC50 was greater than 6.00.
As for `Cc1cccc(C)c1-c1cc2nc(n1)NS(=O)(=O)c1cccc(c1)C(=O)N1C[C@@H](CN(C(=O)OC(C)(C)C)C[C@H]1C(C)C)O2` [Compound 124, tert-Butyl (16S,20R)-12-(2,6-dimethylphenyl)-2,8,8-trioxo-20-(propan-2-yl)-15-oxa-8λ^6-thia-1,9,11,18,22-pentaazatetracyclo[14.4.1.13,7.110,14]tricosa-3(23),4,6,10(22),11,13-hexaene-18-carboxylate], the ring closure, isolated yield in series [1] (from Cc1cccc(C)c1-c1cc(Cl)nc(NS(=O)(=O)c2cccc(C(=O)N3C[C@H](O)CN(C(=O)OC(C)(C)C)C[C@H]3C(C)C)c2)n1, snar bond, NaH, 30.5 mM, 3.17 h) is 35%. Further, in series [2], the “Ent. A Max Activity (%)” value is reported as “+++ (+++ is >600%)” and the negative logarithm of the EC50 (pEC50) was greater than 6.00.
In turn, `Cc1cccc(C)c1-c1cc2nc(n1)NS(=O)(=O)c1cccc(c1)C(=O)N1CCN(C(=O)OCc3ccccc3)CC(O2)[C@H]1C` (single isomer, unassigned; diastereomer 1) registered a ring closure, isolated yield in series [1] (from Cc1cccc(C)c1-c1cc(Cl)nc(NS(=O)(=O)c2cccc(C(=O)N3CCN(C(=O)OCc4ccccc4)CC(O)[C@H]3C)c2)n1, snar bond, NaH, 29.4 mM, 0.0 °C, 1.25 h) of 17%.
The compound `Cc1cccc(C)c1-c1cc2nc(n1)NS(=O)(=O)c1cccc(c1)C(=O)N1C[C@@H](CN(C(=O)OC(C)(C)C)C[C@@H]1CCC(C)C)O2` [Compound 129, tert-Butyl (16S,20S)-12-(2,6-dimethylphenyl)-20-(3-methylbutyl)-2,8,8-trioxo-15-oxa-8λ^6-thia-1,9,11,18,22-pentaazatetracyclo[14.4.1.13,7.110,14]tricosa-3(23),4,6,10(22),11,13-hexaene-18-carboxylate] registered a ring closure, isolated yield in series [1] (from Cc1cccc(C)c1-c1cc(Cl)nc(NS(=O)(=O)c2cccc(C(=O)N3C[C@H](O)CN(C(=O)OC(C)(C)C)C[C@@H]3CCC(C)C)c2)n1, snar bond, NaH, 29.8 mM, 3.67 h) of 53%. In addition, in series [2], the “Ent. A Max Activity (%)” value is listed as “++ (++ is 30-60%)” and the pEC50 is greater than 6.00.
On to `Cc1cccc(C)c1-c1cc2nc(n1)NS(=O)(=O)c1cccc(c1)C(=O)N1CCN(C(=O)OC(C)(C)C)[C@@H](CC(C)C)[C@@H](C1)O2` [Compound 116, tert-Butyl (16R,17S)-12-(2,6-dimethylphenyl)-17-(2-methylpropyl)-2,8,8-trioxo-15-oxa-8λ^6-thia-1,9,11,18,22-pentaazatetracyclo[14.4.1.13,7.110,14]tricosa-3(23),4,6,10(22),11,13-hexaene-18-carboxylate], for which the ring closure, isolated yield in series [1] (from Cc1cccc(C)c1-c1cc(Cl)nc(NS(=O)(=O)c2cccc(C(=O)N3CCN(C(=O)OC(C)(C)C)[C@@H](CC(C)C)[C@H](O)C3)c2)n1, snar bond, NaH, 31.0 mM, 5.17 h) came out at 36%. Further, in series [2], the “Ent. A Max Activity (%)” value is “++ (++ is 30-60%)” and the pEC50 is greater than 6.00.
Take `Cc1cccc(C)c1-c1cc2nc(n1)NS(=O)(=O)c1cccc(c1)C(=O)N1C(c3ncc(OC(C)C)cn3)CCCC(O2)[C@H]1CC(C)C` (single isomer, unassigned; isomer 2): the ring closure, isolated yield in series [1] (from Cc1cccc(C)c1-c1cc(OC2CCCC(c3ncc(OC(C)C)cn3)N[C@@H]2CC(C)C)nc(NS(=O)(=O)c2cccc(C(=O)O)c2)n1, amide bond, CDMT/NMM, 7.3 mM, 60.0 h) was found to be 27%.
For `Cc1cccc(C)c1-c1cc2nc(n1)NS(=O)(=O)c1cccc(c1)C(=O)N1C[C@@H](CN(C(=O)OC(C)(C)C)C[C@@H]1CC(C)C)O2` [Compound 96, tert-Butyl (16S,20S)-12-(2,6-dimethylphenyl)-20-(2-methylpropyl)-2,8,8-trioxo-15-oxa-8λ^6-thia-1,9,11,18,22-pentaazatetracyclo[14.4.1.13,7.110,14]tricosa-3(23),4,6,10(22),11,13-hexaene-18-carboxylate], in series [1] (from Cc1cccc(C)c1-c1cc(Cl)nc(NS(=O)(=O)c2cccc(C(=O)N3C[C@H](O)CN(C(=O)OC(C)(C)C)C[C@@H]3CC(C)C)c2)n1, snar bond, NaH, 29.2 mM, 25.0 °C, 5.08 h), the ring closure, isolated yield was 66%. For the same compound, in series [2], the “Ent. A Max Activity (%)” value is reported as “++ (++ is 30-60%)” and the pEC50 is greater than 6.00.
Compound `Cc1cccc(C)c1-c1cc2nc(n1)NS(=O)(=O)c1cccc(c1)C(=O)N1CCN(C(=O)OCc3ccccc3)C[C@H](C1)O2` gave a ring closure, isolated yield in series [1] (from Cc1cccc(C)c1-c1cc(Cl)nc(NS(=O)(=O)c2cccc(C(=O)N3CCN(C(=O)OCc4ccccc4)C[C@@H](O)C3)c2)n1, snar bond, NaH, 30.4 mM, 5.0 °C, 2.0 h) of 44%.
As to `Cc1cccc(C)c1-c1cc2nc(n1)NS(=N)(=O)c1cccc(c1)C(=O)N1CCN(C(=O)OC(C)(C)C)CC(C1)O2` (stereo not shown), in series [1] (from Cc1cccc(C)c1-c1cc(Cl)nc(NS(=N)(=O)c2cccc(C(=O)N3CCN(C(=O)OC(C)(C)C)CC(O)C3)c2)n1, snar bond, NaH, 15.3 mM, 1.5 h), the ring closure, isolated yield was 23%.
As for `Cc1cccc(C)c1-c1cc2nc(n1)NS(=O)(=O)c1cccc(c1)C(=O)N1CCN(C(=O)OC(C)(C)C)C[C@H](C1)O2`, the ring closure, isolated yield in series [1] (from Cc1cccc(C)c1-c1cc(Cl)nc(NS(=O)(=O)c2cccc(C(=O)N3CCN(C(=O)OC(C)(C)C)C[C@@H](O)C3)c2)n1, snar bond, NaH, 33.1 mM, 0.0 °C, 3.5 h) was determined as 64%.
